This note sets out measurements from US20260263624A1, “COMBINATION OF ANTIBODY-DRUG CONJUGATE AND CANCER THERAPY, AND USE THEREOF” (GENEQUANTUM HEALTHCARE (SUZHOU) CO., LTD., priority 2023, published 2026).

Test [1] concerns human breast cancer HER2 IHC 3+ PDX model. In words: In vivo efficacy of GQ01 with TKIs in human breast cancer PDX model (Example 1). On the set-up: species or system NOD SCID mice. The following applies: GQ01 5 mg/kg Q3W×2, combination 5 + 20 mg/kg; for TGI (%): day 77; for Tumor volume (mm^3), Mean ± SEM: end day (day 77). Here is the method: I. The tumor tissues of PDX model were extracted from the tumor-bearing mice and then transferred to culture medium, cut into small fragments, and inoculated subcutaneously at the right flank of SPF female NOD SCID mice aged 6~8 weeks.
II. The tumor diameter was measured with a caliper and the tumor volume was calculated according to the formula V=0.5 a×b^2 (wherein a is the long diameter of the tumor and b is the short diameter of the tumor). […] The tumor volume of mice in each group was measured twice a week.

For test [2], the system named is gastric cancer HER2 IHC 3+ PDX model. In words: In vivo efficacy of GQ01 with TKIs in human gastric cancer PDX model (Example 4). The settings on record: for TGI (%): day 35; for TGI (%) / Tumor volume (mm^3), Mean ± SEM: GQ01 10 mg/kg single dose; for Tumor volume (mm^3), Mean ± SEM: end day (day 35); for PD (response status, share of animals): 6 mice per group, GQ01 10 mg/kg. Set-up: species or system Nu/Nu mice. How it is done: I. The tumor tissues of PDX model were extracted from the tumor-bearing mice and were transferred to RPMI-1640 culture medium, cut into small fragments, and then inoculated subcutaneously in the right flank of SPF female Nu/Nu mice aged 6~8 weeks.
II. 14 days after inoculation, the tumor diameter was measured with a caliper and the tumor volume was calculated according to the formula V=0.5 a×b2 (wherein a is the long diameter of the tumor and b is the short diameter of the tumor). […] Each group included 6 mice. The day of first administration was defined as day 0. […] The tumor volume of mice in each group was measured twice a week.
The response status were calculated based on the diameters or disappearance of target lesions.

For test [3], the system named is breast cancer HER2 IHC 3+ PDX model (primary resistance to palbociclib). Description: In vivo efficacy of GQ01 with TKIs in human breast cancer PDX model, primary resistance to palbociclib (Example 2). On the set-up: species or system NCG mice. The following applies: GQ01 5 mg/kg on day 0 and day 28; for TGI (%): day 49; for Tumor volume (mm^3), Mean ± SEM: end day (day 49). Here is the method:
The model was derived from a patient with Stage III invasive breast cancer who developed metastases to lung and bone after surgery.
I. The tumor tissues of PDX model were extracted from the tumor-bearing mice and were transferred to culture medium, cut into small fragments, and inoculated subcutaneously in the right flank of SPF female NCG mice aged 6~8 weeks.
II. 30 days after inoculation, the tumor diameter was measured with a caliper and the tumor volume was calculated according to the formula V=0.5 a×b^2 (wherein a is the long diameter of the tumor and b is the short diameter of the tumor). […] Each group included 6 mice. The day of first administration was defined as day 0. […] The tumor volume of mice was measured twice a week.

Test [4] deals with human breast cancer HER2 IHC 3+ PDX model (acquired resistance to trastuzumab and pertuzumab, primary resistance to pyrotinib). Description: In vivo efficacy of GQ01 with TKIs in human breast cancer PDX model resistant to trastuzumab, pertuzumab and pyrotinib (Example 3). The settings on record: for TGI (%): day 42; for TGI (%) / Tumor volume (mm^3), Mean ± SEM: GQ01 3 mg/kg on day 0 and 5 mg/kg on day 21; for Tumor volume (mm^3), Mean ± SEM: end day (day 42). Set-up: species or system NCG mice. How it is done:
This model was derived from a patient with Stage III invasive breast cancer, who was assessed as acquired drug resistance to trastuzumab and pertuzumab and primary resistance to pyrotinib based on the history of treatments.
I. The tumor tissues of PDX model were extracted from the tumor-bearing mice and were transferred to culture medium, cut into small fragments, and then inoculated subcutaneously in the right flank of SPF female NCG mice aged 6~8 weeks.
II. 29 days after inoculation, the tumor diameter was measured with a caliper and the tumor volume was calculated according to the formula V=0.5 a×b2 (wherein a is the long diameter of the tumor and b is the short diameter of the tumor). […] Each group included 6 mice. The day of first administration was defined as day 0. […] The tumor volume of mice in each group was measured twice a week.

Where [5] appears, read: neratinib 20 mg/kg QD×2W+QD×2W, listed as neratinib.
Setting [6] is: pyrotinib 20 mg/kg QD×2W+QD×2W, listed as pyrotinib.
[7] abbreviates: pyrotinib 20 mg/kg QD 2 weeks, combination 10 + 20 mg/kg.
The mark [8] stands for this setting: pyrotinib 20 mg/kg QD 2 weeks, combination 10 + 20 mg/kg, listed as pyrotinib.
The mark [9] stands for this setting: pyrotinib 20 mg/kg QD day 0-13, 28-41, combination 5 + 20 mg/kg.
Setting [10] is: pyrotinib 20 mg/kg QD day 0-13, 28-41, combination 5 + 20 mg/kg, listed as pyrotinib.
Where [11] appears, read: pyrotinib 20 mg/kg QD day 0-13, 21-34, combination 3/5 + 20 mg/kg.
The mark [12] stands for this setting: pyrotinib 20 mg/kg QD day 0-13, 21-34, combination 3/5 + 20 mg/kg, listed as pyrotinib.
The mark [13] stands for this setting: tucatinib 20 mg/kg BID×2W+BID×2W.
[14] abbreviates: tucatinib 20 mg/kg BID×2W+BID×2W, listed as tucatinib.
Setting [15] is: tucatinib 50 mg/kg QD 2 weeks, combination 10 + 50 mg/kg.
Setting [16] is: tucatinib 50 mg/kg QD 2 weeks, combination 10 + 50 mg/kg, listed as tucatinib.
[17] abbreviates: tucatinib 50 mg/kg QD day 0-13, 28-41, combination 5 + 50 mg/kg.
Where [18] appears, read: tucatinib 50 mg/kg QD day 0-13, 28-41, combination 5 + 50 mg/kg, listed as tucatinib.
The mark [19] stands for this setting: tucatinib 50 mg/kg QD day 0-13, 21-34, combination 3/5 + 50 mg/kg.
[20] abbreviates: tucatinib 50 mg/kg QD day 0-13, 21-34, combination 3/5 + 50 mg/kg, listed as tucatinib.

In the case of `CCOc1cc2ncc(C#N)c(Nc3ccc(OCc4ccccn4)c(Cl)c3)c2cc1NC(=O)/C=C/CN(C)C` [Neratinib, neratinib], the “TGI (%)” value in test [1] (neratinib 20 mg/kg QD×2W+QD×2W) and in test [1] (setting [5]) was 61.80% in each case. For the same compound, the “Tumor volume (mm^3), Mean ± SEM” value in test [1] (neratinib 20 mg/kg QD×2W+QD×2W) was 724 ± 114 mm^3; in test [1] (setting [5]) it was 724 mm^3.
With `CCOc1cc2ncc(C#N)c(Nc3ccc(OCc4ccccn4)c(Cl)c3)c2cc1NC(=O)/C=C/[C@H]1CCCN1C` [Pyrotinib, pyrotinib], the “TGI (%)” value was 34.93% in test [1] (pyrotinib 20 mg/kg QD×2W+QD×2W); 34.93% in test [1] (setting [6]); 83.09% in test [2] (setting [7]); 83.09% in test [2] (setting [8]); −2.65% in test [3] (setting [9]); −2.65% in test [3] (setting [10]). For the same compound, the “TGI (%)” value in test [4] (setting [11]) and in test [4] (setting [12]) was 10.08% in each case. The “Tumor volume (mm^3), Mean ± SEM” value in test [1] (pyrotinib 20 mg/kg QD×2W+QD×2W) is given as 1108 ± 202 mm^3; in test [1] (setting [6]), 1108 mm^3; in test [2] (setting [7]), 233.72 ± 39.7 mm^3; in test [2] (setting [8]) it was 234 mm^3; in test [3] (setting [9]), 740.71 ± 146.76 mm^3; in test [3] (setting [10]), 741 mm^3. The “Tumor volume (mm^3), Mean ± SEM” value is listed as 1333.21 ± 217.85 mm^3 in test [4] (setting [11]) and 1333 mm^3 in test [4] (setting [12]). The “PD (response status, share of animals)” value in test [2] (pyrotinib arm table, pyrotinib 20 mg/kg, dash = no animal in this class) turned out to be 83.33%.
In the case of `Cc1cc(Nc2ncnc3ccc(NC4=NC(C)(C)CO4)cc23)ccc1Oc1ccn2ncnc2c1` [Tucatinib, tucatinib], the “TGI (%)” value was 51.08% in test [1] (setting [13]); 51.08% in test [1] (setting [14]); 48.94% in test [2] (setting [15]); 48.94% in test [2] (setting [16]); −1.09% in test [3] (setting [17]); −1.09% in test [3] (setting [18]). Also, the “TGI (%)” value in test [4] (setting [19]) and in test [4] (setting [20]) was −6.46% throughout. Further, the “Tumor volume (mm^3), Mean ± SEM” value in test [1] (setting [13]) turned out to be 879 ± 216 mm^3; in test [1] (setting [14]) it was 879 mm^3; in test [2] (setting [15]), 399.97 ± 43.87 mm^3; in test [2] (setting [16]), 400 mm^3; in test [3] (setting [17]), 732.33 ± 137.71 mm^3; in test [3] (setting [18]) it was 732 mm^3. The “Tumor volume (mm^3), Mean ± SEM” value in test [4] (setting [19]) worked out at 1557.77 ± 178.71 mm^3; in test [4] (setting [20]), 1558 mm^3. For the same compound, the “PD (response status, share of animals)” value in test [2] (tucatinib arm table, tucatinib 50 mg/kg) is 100%. In test [4] (tucatinib 50 mg/kg QD day 0-13, 21-34), the “response of the model to treatment, in words” value is reported as “doesn't respond”.
